Here are results for two compounds from article PMC5845004, “Novel (p)ppGpp Binding and Metabolizing Proteins of Escherichia coli” (mBio, 2018).

The structures appear in SMILES notation. Several values for one entry are separate records, joined by “and”; a condition that tells them apart may be missing. Equal values may be shown once. Entries after “also recorded” stand apart in the source; their conditions may differ. Read-outs that look alike come from different tables or passages of the source.

One test has as its target YgdH (Escherichia coli, UniProt P0ADR8). Nature of the test: DRaCALA binding and Kd determination, purified YgdH. Further details: species or system E. coli. The following applies: DRaCALA.
The target in the next test is Der (Escherichia coli, UniProt P0A6P5). Nature of the test: DRaCALA Kd determination, purified Der. The class given is binding, E. coli. As to conditions: 2 nM 32P-labeled ligand, read-out: apparent Kd, Der.
Chain of Der (P0A6P5 whole entry): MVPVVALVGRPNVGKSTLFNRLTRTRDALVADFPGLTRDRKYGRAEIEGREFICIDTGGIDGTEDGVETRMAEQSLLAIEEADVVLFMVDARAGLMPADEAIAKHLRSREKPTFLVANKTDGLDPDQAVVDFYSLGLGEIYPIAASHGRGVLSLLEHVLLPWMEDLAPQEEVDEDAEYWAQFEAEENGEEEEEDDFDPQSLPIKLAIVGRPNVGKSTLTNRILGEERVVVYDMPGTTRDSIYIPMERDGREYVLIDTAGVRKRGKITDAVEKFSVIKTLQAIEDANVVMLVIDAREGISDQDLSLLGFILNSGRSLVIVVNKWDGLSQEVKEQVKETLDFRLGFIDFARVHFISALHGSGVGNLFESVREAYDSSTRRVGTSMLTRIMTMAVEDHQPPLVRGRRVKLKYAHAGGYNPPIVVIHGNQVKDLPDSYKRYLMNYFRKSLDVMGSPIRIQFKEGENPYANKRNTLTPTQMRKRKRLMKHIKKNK
For another test, the target named is RF3 (PrfC) (Escherichia coli, UniProt P0A7I4). The test is described as follows: DRaCALA Kd determination, purified RF3. As to conditions: 2 nM 32P-labeled ligand, read-out: apparent Kd, RF3 (PrfC). The class given is binding, E. coli.
Chain of RF3 (PrfC) (P0A7I4 whole entry): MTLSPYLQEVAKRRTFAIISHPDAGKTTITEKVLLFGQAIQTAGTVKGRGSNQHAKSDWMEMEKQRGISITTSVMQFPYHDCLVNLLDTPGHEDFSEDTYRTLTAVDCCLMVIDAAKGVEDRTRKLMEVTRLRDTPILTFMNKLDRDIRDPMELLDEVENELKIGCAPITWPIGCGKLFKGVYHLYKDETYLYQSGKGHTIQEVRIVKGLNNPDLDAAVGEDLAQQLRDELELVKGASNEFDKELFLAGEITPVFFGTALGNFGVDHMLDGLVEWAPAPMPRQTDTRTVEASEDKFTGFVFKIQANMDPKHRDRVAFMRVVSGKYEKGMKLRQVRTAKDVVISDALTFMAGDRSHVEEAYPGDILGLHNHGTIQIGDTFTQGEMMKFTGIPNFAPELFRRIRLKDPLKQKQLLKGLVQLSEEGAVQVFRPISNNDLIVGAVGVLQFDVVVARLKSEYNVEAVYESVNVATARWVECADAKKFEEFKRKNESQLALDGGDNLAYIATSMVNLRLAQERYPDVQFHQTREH
The next test deals with SaDer (Staphylococcus aureus, UniProt A6QH24). The test is described as follows: DRaCALA Kd determination, SaDer. The class given is binding, S. aureus.
Chain of SaDer (A6QH24 whole entry): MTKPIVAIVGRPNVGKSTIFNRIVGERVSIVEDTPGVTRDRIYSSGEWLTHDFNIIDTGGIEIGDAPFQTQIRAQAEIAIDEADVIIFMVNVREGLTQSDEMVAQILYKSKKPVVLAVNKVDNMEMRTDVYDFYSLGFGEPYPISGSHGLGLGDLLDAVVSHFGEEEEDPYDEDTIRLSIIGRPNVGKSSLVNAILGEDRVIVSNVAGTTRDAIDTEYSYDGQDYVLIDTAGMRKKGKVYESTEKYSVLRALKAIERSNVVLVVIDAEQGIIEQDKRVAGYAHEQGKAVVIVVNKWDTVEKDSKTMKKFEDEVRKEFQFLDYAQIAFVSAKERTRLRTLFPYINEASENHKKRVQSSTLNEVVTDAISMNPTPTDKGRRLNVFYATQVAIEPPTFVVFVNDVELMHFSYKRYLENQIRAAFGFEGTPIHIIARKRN
The target of another test is LepA (Escherichia coli, UniProt P60785). The test is described as follows: DRaCALA binding curves, purified LepA. Further details: species or system E. coli. The following applies: Kd could not be determined.
Chain of LepA (P60785 whole entry): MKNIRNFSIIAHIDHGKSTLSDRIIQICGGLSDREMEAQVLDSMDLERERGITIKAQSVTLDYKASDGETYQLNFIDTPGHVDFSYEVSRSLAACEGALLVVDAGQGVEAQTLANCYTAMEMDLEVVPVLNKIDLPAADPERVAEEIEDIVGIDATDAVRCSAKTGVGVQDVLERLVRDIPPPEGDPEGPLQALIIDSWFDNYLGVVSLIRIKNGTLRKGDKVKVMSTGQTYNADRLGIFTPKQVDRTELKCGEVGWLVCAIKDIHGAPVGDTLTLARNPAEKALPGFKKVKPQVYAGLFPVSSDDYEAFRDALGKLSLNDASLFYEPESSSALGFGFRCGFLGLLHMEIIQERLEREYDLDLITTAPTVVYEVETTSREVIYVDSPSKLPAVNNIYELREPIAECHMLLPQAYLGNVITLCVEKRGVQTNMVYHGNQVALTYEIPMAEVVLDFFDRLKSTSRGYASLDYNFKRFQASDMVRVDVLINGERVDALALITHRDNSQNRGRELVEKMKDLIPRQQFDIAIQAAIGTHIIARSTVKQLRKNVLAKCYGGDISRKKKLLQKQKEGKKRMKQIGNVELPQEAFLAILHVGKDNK
The target of test [1] is T1, NudG (Escherichia coli, UniProt P77788).
T1 construct: expressed in transfected cells; host or cells: E. coli ASKA collection strain, IPTG-induced, whole-cell lysate
T1 sequence (P77788 whole entry): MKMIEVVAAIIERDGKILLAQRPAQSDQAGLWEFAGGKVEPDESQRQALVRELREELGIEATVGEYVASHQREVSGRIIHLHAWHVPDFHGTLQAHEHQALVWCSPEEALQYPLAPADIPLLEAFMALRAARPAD
The test is described as follows: DRaCALA competition assay, lysate with overproduced NudG. The class given is binding, E. coli. As to conditions: whole-cell lysate, 2 nM hot (p)ppGpp, 100 µM cold competitor. As to the method:
Bacterial cells were collected and frozen at −80°C.

Test [2] deals with T1, NudG. Nature of the test: In vitro cleavage assay (TLC), NudG. The class given is biochemical, E. coli. The following applies: purified NudG, buffer B with 10 mM MgCl2, TLC. On the procedure:
(§1) The purified His6-MutT and His6-NudG proteins were tested for their relative levels of cleavage of ppGpp compared to those seen with their native substrates. For this, a 1 μM concentration of each protein and a 10 nM concentration of [α-^32P]ppGpp were used together with 100 μM concentrations of cold competitors [ppGpp, GTP, ATP, 8-oxo-(d)GTP, 2-hydroxyl-(d)ATP] or 50 mM EDTA in buffer B. The samples were incubated at 30°C for 10 min and for 1 h before the reactions were stopped by adding 50 mM EDTA. The cleavage products were resolved by TLC as described above. The purified His6-NadR and His6-TrmE proteins were tested for their cleavage of both GTP and ppGpp. For cleavage of GTP, 10 μM concentrations of His6-MBP, His6-TrmE, and 20 μM His6-NadR proteins were used with 2 nM [α-^32P]GTP and 100 μM cold GTP in buffer B. For cleavage of ppGpp, 10 μM concentrations of His6-TrmE, His6-MBP, and His6-NadR proteins were used with 10 nM [α-^32P]ppGpp in buffer B. Of note, for His6-TrmE, another reaction was also performed in buffer B supplemented with 100 mM KCl. The reactions were performed at RT for 10 min and were stopped by adding 17% formic acid. The cleavage products were resolved by TLC as described above.
A 20 μM concentration of each of purified proteins MutT, NudG, NadR, TrmE, and MBP (as a negative control) was incubated with 100 μM ppGpp in buffer B (containing 40 mM Tris [pH 7.5], 100 mM NaCl, and 10 mM MgCl2) for 20 min at room temperature. Samples were snap-frozen on dry ice and analyzed with UPLC-MS afterward. All samples and buffers were stored at −80°C, thawed on ice, and kept at 4°C during analysis. For the analysis, a UPLC-quadrupole time of flight (UPLC-qTOF) method (Waters) was used. Analysis conditions were as follows: column, zic-HILIC (Merck Millipore) (150 by 2.1 mm, […], gradient elution, flow rate set to 0.3 ml/min); mobile phase A, 10 mM ammonium acetate (pH 5); mobile phase B, 90% acetonitrile with 10 mM ammonium acetate (pH 5). The gradient was set up as follows: min 0 to 2, 80% B; min 2 to 16, 80% B to 50% B; hold until min 20; injection volume, 4 µl. The detection conditions were as follows: photodiode array detector (PDA), […] (evaluated at 260 nm); MS, ionization; electrospray ionization (ESI+), scan, 200 to 800 m/z with lock mass correction. Analytes were identified by their accurate mass and retention time data for a known standard dissolved in used buffer (for the chemicals of the same nominal masses). These standards were either synthesized and their structures confirmed by nuclear magnetic resonance (NMR) (for ppGp, pGpp, and pGp) or purchased (ppGpp was purchased from Jena Biocsience and GTP from Sigma-Aldrich).

A further test concerns the target TrmE (Escherichia coli, UniProt P25522). The test is described as follows: In vitro cleavage assay (TLC), TrmE. The class given is biochemical, E. coli. As to conditions: 10 µM TrmE, buffer B, with 100 mM potassium where stated, 10 min. As to the method:
as §1
A 20 μM concentration of each of purified proteins MutT, NudG, NadR, TrmE, and MBP (as a negative control) was incubated with 100 μM ppGpp in buffer B (containing 40 mM Tris [pH 7.5], 100 mM NaCl, and 10 mM MgCl2) for 20 min at room temperature. Samples were snap-frozen on dry ice and analyzed with UPLC-MS afterward. All samples and buffers were stored at −80°C, thawed on ice, and kept at 4°C during analysis. For the analysis, a UPLC-quadrupole time of flight (UPLC-qTOF) method (Waters) was used. […] The detection conditions were as follows: photodiode array detector (PDA), […] (evaluated at 260 nm); MS, ionization; electrospray ionization (ESI+), scan, 200 to 800 m/z with lock mass correction. […]

A further test concerns the target NadR (Escherichia coli, UniProt P27278). The test is described as follows: In vitro cleavage assay (TLC), NadR. As to conditions: 10-20 µM NadR, buffer B with 100 mM NaCl, 10 min. The class given is biochemical, E. coli. On the procedure:
The purified His6-MutT and His6-NudG proteins were tested for their relative levels of cleavage of ppGpp compared to those seen with their native substrates. For this, a 1 μM concentration of each protein and a 10 nM concentration of [α-^32P]ppGpp were used together with 100 μM concentrations of cold competitors [ppGpp, GTP, ATP, 8-oxo-(d)GTP, 2-hydroxyl-(d)ATP] or 50 mM EDTA in buffer B. The samples were incubated at 30°C for 10 min and for 1 h before the reactions were stopped by adding 50 mM EDTA. The cleavage products were resolved by TLC as described above. The purified His6-NadR and His6-TrmE proteins were tested for their cleavage of both GTP and ppGpp. […]
A 20 μM concentration of each of purified proteins MutT, NudG, NadR, TrmE, and MBP (as a negative control) was incubated with 100 μM ppGpp in buffer B (containing 40 mM Tris [pH 7.5], 100 mM NaCl, and 10 mM MgCl2) for 20 min at room temperature. Samples were snap-frozen on dry ice and analyzed with UPLC-MS afterward. […] The detection conditions were as follows: photodiode array detector (PDA), […] (evaluated at 260 nm); MS, ionization; electrospray ionization (ESI+), scan, 200 to 800 m/z with lock mass correction. […]

For a further test, the target named is Apt (Escherichia coli, UniProt P69503). The following applies: cited from earlier work.
Chain of Apt (P69503 whole entry): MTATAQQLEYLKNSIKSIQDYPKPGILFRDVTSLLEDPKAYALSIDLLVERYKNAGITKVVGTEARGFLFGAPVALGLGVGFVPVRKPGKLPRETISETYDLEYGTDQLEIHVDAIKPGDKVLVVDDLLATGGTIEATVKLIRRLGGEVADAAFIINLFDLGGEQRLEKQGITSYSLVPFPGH
Another test has as its system HprT. On the set-up: method as in ref 46 (Table S1 ref 3). The following applies: ref 46 (Table S1 ref 3); read-out: IC50, B. subtilis HprT; cited from earlier work.
Another test has as its system Gmk. Further details: method as in Table S1 (3). As to conditions: ref Table S1 (3); read-out: IC50, B. subtilis Gmk; cited from earlier work.
The next test addresses Era. Further details: method as in Table S1 (4). The following applies: ref Table S1 (4); read-out: Kd, S. aureus Era (converted); cited from earlier work.
For the next test, the target named is HflX. Further details: method as in Table S1 (4). The following applies: ref Table S1 (4); read-out: Kd, S. aureus HflX (converted); cited from earlier work.
The target of the next test is EF-Tu. On the set-up: method as in Table S1 (9). The following applies: ref Table S1 (9); cited from earlier work.
The target of a further test is PPX. Further details: method as in ref 35 (Table S1 ref 20). The following applies: competitive; ref 35 (Table S1 ref 20); read-out: inhibitory constant Ki, PPX; cited from earlier work.
The next test relates to RelA. On the set-up: method as in ref 36 (Table S1 ref 16). The following applies: ref 36 (Table S1 ref 16); cited from earlier work.
Setting [3] is: in the presence of EDTA (without Mg2+), read-out: Kd, YgdH + EDTA (converted).
Setting [4] is: with 1.5 mM Mg2+, read-out: apparent Kd, YgdH + 1.5 mM Mg2+.

Chain of YgdH (P0ADR8 whole entry): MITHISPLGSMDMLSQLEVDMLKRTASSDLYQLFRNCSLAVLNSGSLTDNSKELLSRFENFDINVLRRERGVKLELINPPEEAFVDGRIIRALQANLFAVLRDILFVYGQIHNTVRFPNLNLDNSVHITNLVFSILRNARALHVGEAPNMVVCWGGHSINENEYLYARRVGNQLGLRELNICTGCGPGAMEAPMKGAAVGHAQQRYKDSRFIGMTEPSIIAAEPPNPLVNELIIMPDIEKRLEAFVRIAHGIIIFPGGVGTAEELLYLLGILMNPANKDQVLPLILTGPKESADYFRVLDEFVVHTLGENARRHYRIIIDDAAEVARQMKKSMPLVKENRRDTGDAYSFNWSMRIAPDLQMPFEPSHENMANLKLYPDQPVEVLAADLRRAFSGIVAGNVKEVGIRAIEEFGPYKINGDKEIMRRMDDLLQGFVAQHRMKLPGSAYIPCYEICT
Chain of NadR (P27278 whole entry): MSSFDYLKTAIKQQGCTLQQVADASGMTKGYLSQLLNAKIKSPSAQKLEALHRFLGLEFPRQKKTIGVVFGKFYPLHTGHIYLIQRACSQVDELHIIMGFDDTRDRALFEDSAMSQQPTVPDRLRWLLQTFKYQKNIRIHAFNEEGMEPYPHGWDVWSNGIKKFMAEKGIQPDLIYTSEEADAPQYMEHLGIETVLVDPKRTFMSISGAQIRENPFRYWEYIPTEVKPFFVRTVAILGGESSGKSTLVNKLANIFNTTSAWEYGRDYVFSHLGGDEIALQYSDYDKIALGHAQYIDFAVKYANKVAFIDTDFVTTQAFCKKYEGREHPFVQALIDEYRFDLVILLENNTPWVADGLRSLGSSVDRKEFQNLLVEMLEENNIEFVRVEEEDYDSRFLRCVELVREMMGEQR
Chain of TrmE (P25522 whole entry): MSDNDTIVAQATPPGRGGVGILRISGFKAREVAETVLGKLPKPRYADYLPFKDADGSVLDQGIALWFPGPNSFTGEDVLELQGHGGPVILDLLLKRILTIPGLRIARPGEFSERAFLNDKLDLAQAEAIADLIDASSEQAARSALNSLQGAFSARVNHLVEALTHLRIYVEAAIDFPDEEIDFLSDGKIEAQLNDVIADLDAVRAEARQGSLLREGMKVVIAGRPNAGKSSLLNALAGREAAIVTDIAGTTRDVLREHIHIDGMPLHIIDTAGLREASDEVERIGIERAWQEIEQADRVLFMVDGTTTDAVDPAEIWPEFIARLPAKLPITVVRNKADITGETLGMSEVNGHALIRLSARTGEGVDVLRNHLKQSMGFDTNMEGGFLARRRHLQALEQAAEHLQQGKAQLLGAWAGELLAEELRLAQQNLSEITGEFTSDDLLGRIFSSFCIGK
Description for LepA: For Kd measurements by DRaCALA, 2-fold serial dilutions from the highest possible concentrations of each purified protein were prepared in binding buffer B, and approximately 2 nM concentrations of α-^32P-labeled ppGpp, pppGpp, GTP, and GDP were added. The mixtures were incubated for 5 min at RT before spotting of 2 µl of the reaction mixtures onto nitrocellulose membranes. The fractions of bound ligand and the apparent Kd values were calculated as previously described ([37]). For competition assays, purified proteins at the specified concentrations were incubated with 2 nM [α-^32P]ppGpp or [α-^32P]pppGpp in the presence of 100 μM competitor nucleotides in binding buffer B. The reaction mixtures were incubated for 5 min at RT, 2 µl was spotted onto nitrocellulose membranes, and the values corresponding to the bound fractions were determined. EDTA was added at excess concentrations as specified for each case.
Description for RF3 (PrfC): (§2) For Kd measurements by DRaCALA, 2-fold serial dilutions from the highest possible concentrations of each purified protein were prepared in binding buffer B, and approximately 2 nM concentrations of α-^32P-labeled ppGpp, pppGpp, GTP, and GDP were added. The mixtures were incubated for 5 min at RT before spotting of 2 µl of the reaction mixtures onto nitrocellulose membranes. The fractions of bound ligand and the apparent Kd values were calculated as previously described ([37]).
Description for SaDer: as §2
Description for YgdH: For Kd measurements by DRaCALA, 2-fold serial dilutions from the highest possible concentrations of each purified protein were prepared in binding buffer B, and approximately 2 nM concentrations of α-^32P-labeled ppGpp, pppGpp, GTP, and GDP were added. The mixtures were incubated for 5 min at RT before spotting of 2 µl of the reaction mixtures onto nitrocellulose membranes. […] For competition assays, purified proteins at the specified concentrations were incubated with 2 nM [α-^32P]ppGpp or [α-^32P]pppGpp in the presence of 100 μM competitor nucleotides in binding buffer B. The reaction mixtures were incubated for 5 min at RT, 2 µl was spotted onto nitrocellulose membranes, and the values corresponding to the bound fractions were determined. EDTA was added at excess concentrations as specified for each case.

Turning to `Nc1nc2c(ncn2[C@@H]2O[C@H](COP(=O)(O)OP(=O)(O)O)[C@@H](OP(=O)(O)OP(=O)(O)O)[C@H]2O)c(=O)[nH]1` [ppGpp, guanosine tetraphosphate], the Kd was 4 ± 0.5 µM on YgdH (setting [3]); 24.4 ± 4.7 µM on YgdH (setting [4]); 1.8 µM and 1.77 µM on Der; 0.82 ± 0.09 µM on RF3 (PrfC); 3.8 ± 0.5 µM at SaDer; 0.95 ± 0.06 µM at Era. Further, at HflX, the Kd was 0.87 ± 0.15 µM. For the same compound, on LepA, the “relative binding to LepA (binding curves)” value is “tighter binding of ppGpp than pppGpp; also recorded: ND; stronger binding to ppGpp than pppGpp”. On NudG [1], the “competition for NudG-bound (p)ppGpp” value is on record as “could outcompete the bound, radiolabeled (p)ppGpp”. The “cleavage by NudG” value at NudG [2] is “degraded into smaller products; also recorded: relatively weak ppGpp cleavage activity”. Further, the “cleavage by TrmE” value at TrmE is “converted most of ppGpp”. In addition, the “cleavage by NadR” value on NadR is listed as “converted most of ppGpp”. The IC50 at Apt was roughly 1500 µM; with HprT, 11 µM; in the test on Gmk it was 20 µM. Besides, the Ki was 60 µM at EF-Tu and 200 µM at PPX. For the same compound, the “effect on RelA activity” value in the test on RelA is listed as “allosterically stimulates”.
For `Nc1nc2c(ncn2[C@@H]2O[C@H](COP(=O)(O)OP(=O)(O)OP(=O)(O)O)[C@@H](OP(=O)(O)OP(=O)(O)O)[C@H]2O)c(=O)[nH]1` [pppGpp, guanosine pentaphosphate], the Kd on YgdH (setting [3]) was 1.6 µM and 1.59 µM; at YgdH (setting [4]), 37.2 ± 6.5 µM; on Der, 6.9 ± 2.9 µM; at RF3 (PrfC), 15 ± 5 µM; at Era, 3.85 µM; on HflX, 13.6 µM. The “competition for NudG-bound (p)ppGpp” value at NudG [1] is listed as “could outcompete the bound, radiolabeled (p)ppGpp”. Besides, the “cleavage by NudG” value on NudG [2] is given as “degraded into smaller products”. The Ki at PPX is 10 µM.
